Data from patent US20070128217A1 (priority 2003, published 2007).

What was measured:
[1] = test system: antibodies in sera from SARS patients (sera 1a, 1b, 2, 6, 37, 62, London, SARS-yellow, SARS-green); assay type: binding, human; design: Binding of serum 6 to linear peptides of protein X1 of SARS-CoV Urbani / Binding of serum 37 to linear peptides of protein X1 of SARS-CoV Urbani / Binding of serum 6 to looped/cyclic peptide (PEPSCAN-ELISA) / Binding of serum 37 to looped/cyclic peptide (PEPSCAN-ELISA) / Binding of serum 37 to looped/cyclic peptides of protein X1 of SARS-CoV Urbani / Binding of serum 6 to linear peptides of protein X2 / Binding of serum 37 to linear peptides of protein X2 / Binding of serum 37 to looped/cyclic peptides of protein X2 of SARS-CoV Urbani / Binding of serum 6 to linear peptides of protein M of SARS-CoV Urbani / Binding of serum 37 to linear peptides of protein M of SARS-CoV Urbani / Binding of serum 6 to looped/cyclic peptides of protein M of SARS-CoV Urbani / Binding of serum 37 to looped/cyclic peptides of protein M of SARS-CoV Urbani / Binding of serum 6 to linear peptides of protein X3 of SARS-CoV Urbani / Binding of serum 37 to linear peptides of protein X3 of SARS-CoV Urbani / Binding of serum 37 to looped/cyclic peptides of protein X3 of SARS-CoV Urbani / Binding of serum 6 to linear peptides of protein X4 of SARS-CoV Urbani / Binding of serum 37 to linear peptides of protein X4 of SARS-CoV Urbani / Binding of serum 37 to looped/cyclic peptides of protein X4 of SARS-CoV Urbani / Binding of serum 6 to linear peptides of protein X5 of SARS-CoV Urbani / Binding of serum 37 to linear peptides of protein X5 of SARS-CoV Urbani / Binding of serum 37 to looped/cyclic peptides of protein X5 of SARS-CoV Urbani / Binding of serum 6 to linear peptides of protein N of SARS-CoV Urbani / Binding of serum 37 to linear peptides of protein N of SARS-CoV Urbani / Binding of serum 6 to linear peptide (PEPSCAN-ELISA) / Binding of serum 1a to looped/cyclic peptides of protein N of SARS-CoV Urbani / Binding of serum 1b to looped/cyclic peptides of protein N of SARS-CoV Urbani / Binding of serum 2 to looped/cyclic peptides of protein N of SARS-CoV Urbani / Binding of serum 6 to looped/cyclic peptides of protein N of SARS-CoV Urbani / Binding of serum 37 to looped/cyclic peptides of protein N of SARS-CoV Urbani / Binding of serum 62 to looped/cyclic peptides of protein N of SARS-CoV Urbani / Binding of serum London to looped/cyclic peptides of protein N of SARS-CoV Urbani / Binding of serum SARS-green to looped/cyclic peptides of protein N of SARS-CoV Urbani: unit not given here
[2] = test system: control sera (pooled serum of ten healthy LUMC hospital workers; commercial negative donor pooled serum from the Dutch bloodbank); assay type: binding, human; design: Binding of Control serum LUMC to linear peptides / Binding of Control serum Blood-bank to linear peptides / Binding of Control serum LUMC to looped peptides / Binding of Control Serum Blood-Bank to Looped peptides / Binding of Control serum LUMC to linear peptides of the protein M of SARS-CoV Urbani / Binding of Control serum Blood-bank to linear peptides of the protein M of SARS-CoV Urbani / Binding of Control serum LUMC to looped peptides of the protein M of SARS-CoV Urbani / Binding of Control Serum Blood-Bank to Looped peptides of the protein M of SARS-CoV Urbani: unit not given here
[3] = test system: rabbit serum obtained by immunizing a rabbit with the SARS-CoV strain Frankfurt 1; assay type: binding; design: Binding of a rabbit serum to linear peptides / Binding of a rabbit serum to looped peptides / Rabbit serum linear peptides / Rabbit serum looped peptides / Binding of a rabbit serum to linear peptides of protein N of SARS-CoV Urbani (Rabbit serum linear peptides) / Binding of a rabbit serum to looped/cyclic peptides of protein N of SARS-CoV Urbani (Rabbit serum looped peptides): unit not given here

Row | Sequence | Binding of serum 1a to linear peptides of protein X1 of SARS-CoV Urbani [1] | Binding of serum 1b to linear peptides of protein X1 of SARS-CoV Urbani [1] | Binding of serum 2 to linear peptides of protein X1 of SARS-CoV Urbani [1] | Binding of serum 6 to linear peptides of protein X1 of SARS-CoV Urbani [1] | Binding of serum 37 to linear peptides of protein X1 of SARS-CoV Urbani [1] | Binding of serum 62 to linear peptides of protein X1 of SARS-CoV Urbani [1] | Binding of serum London to linear peptides of protein X1 of SARS-CoV Urbani [1] | Binding of serum SARS-green to linear peptides of protein X1 of SARS-CoV Urbani [1] | Binding of serum SARS-yellow to linear peptides of protein X1 of SARS-CoV Urbani [1] | Binding of Control Serum Blood-Bank to Looped peptides [2] | Binding of Control serum Blood-bank to linear peptides [2] | Binding of Control serum LUMC to linear peptides [2] | Binding of Control serum LUMC to looped peptides [2] | Binding of a rabbit serum to linear peptides [3] | Binding of a rabbit serum to looped peptides [3] | other results
1 | QLESTQITTDTGIEN | 0.6 | 0.5 | 0.4 | 0.4 | 0.5 | 0.5 | 0.3 | 0.2 | 0.4 | 0.5 | 0.3 | 0.5 | 0.5 | 0.1 | 0.6 | Binding of serum 1a to looped/cyclic peptides of protein X1 of SARS-CoV Urbani [1]: 0.4; Binding of serum 1b to looped/cyclic peptides of protein X1 of SARS-CoV Urbani [1]: 0.3; Binding of serum 2 to looped/cyclic peptides of protein X1 of SARS-CoV Urbani [1]: 0.3; Binding of serum 6 to looped/cyclic peptides of protein X1 of SARS-CoV Urbani [1]: 0.2; Binding of serum 37 to looped/cyclic peptides of protein X1 of SARS-CoV Urbani [1]: 0.5; Binding of serum 62 to looped/cyclic peptides of protein X1 of SARS-CoV Urbani [1]: 0.5; Binding of serum London to looped/cyclic peptides of protein X1 of SARS-CoV Urbani [1]: 0.2; Binding of serum SARS-green to looped/cyclic peptides of protein X1 of SARS-CoV Urbani [1]: 0.4; Binding of serum SARS-yellow to looped/cyclic peptides of protein X1 of SARS-CoV Urbani [1]: 0.4
2 | MMSRRRLLACLCKHK |  |  |  |  |  |  |  |  |  | 0.2 | 0.8 | 0.5 | 0.2 | 0.4 | 0.3 | Binding of serum 1a to looped/cyclic peptides of protein X2 of SARS-CoV Urbani [1]: 0.2; Binding of serum 1b to looped/cyclic peptides of protein X2 of SARS-CoV Urbani [1]: 0.2; Binding of serum 2 to looped/cyclic peptides of protein X2 of SARS-CoV Urbani [1]: 0.1; Binding of serum 6 to looped/cyclic peptides of protein X2 of SARS-CoV Urbani [1]: 0.0; Binding of serum 37 to looped/cyclic peptides of protein X2 of SARS-CoV Urbani [1]: 0.2; Binding of serum 62 to looped/cyclic peptides of protein X2 of SARS-CoV Urbani [1]: 0.3; Binding of serum London to looped/cyclic peptides of protein X2 of SARS-CoV Urbani [1]: 0.1; Binding of serum SARS-green to looped/cyclic peptides of protein X2 of SARS-CoV Urbani [1]: 0.1; Binding of serum SARS-yellow to looped/cyclic peptides of protein X2 of SARS-CoV Urbani [1]: 0.2; Recognition of the peptide by sera of SARS-CoV infected individuals, and form (linear, looped/cyclic) in which it is recognized [1]: recognized in linear form
3 | NPLLYDANYFVCWHT | 0.9 | 0.6 | 0.6 | 0.5 | 0.8 | 0.7 | 0.3 | 0.4 | 0.4 | 0.7 | 0.6 | 0.6 | 0.6 | 0.2 | 0.6 | Binding of serum 1a to looped/cyclic peptide (PEPSCAN-ELISA) [1]: 0.5; Binding of serum 1b to looped/cyclic peptide (PEPSCAN-ELISA) [1]: 0.4; Binding of serum 2 to looped/cyclic peptide (PEPSCAN-ELISA) [1]: 0.4; Binding of serum 6 to looped/cyclic peptide (PEPSCAN-ELISA) [1]: 0.3; Binding of serum 37 to looped/cyclic peptide (PEPSCAN-ELISA) [1]: 0.5; Binding of serum 62 to looped/cyclic peptide (PEPSCAN-ELISA) [1]: 0.6; Binding of serum London to looped/cyclic peptide (PEPSCAN-ELISA) [1]: 0.2; Binding of serum SARS-green to looped/cyclic peptide (PEPSCAN-ELISA) [1]: 0.3; Binding of serum SARS-yellow to looped/cyclic peptide (PEPSCAN-ELISA) [1]: 0.4
